Source: patent publication US6951869B2, “Use of leukotriene receptor antagonist for treatment of scarring” (priority 2002, dated 2005)

What was measured:
capsular contracture = assay: Treatment of capsular contracture after breast implantation in patients (case reports, Bakers Class); type: in vivo, human
Description: The breasts remained soft until 4 years and 2 months following the operation. The left breast then developed Bakers Class III capsular contracture, but the right breast remained soft. Patient was then placed on ACCOLATE® 20 mg, twice daily. One month following the prescription of ACCOLATE®, the left breast was softer (Bakers Class II) and three months later, it was even softer (Bakers Class I). Four months following ACCOLATE® therapy, both breasts were soft again (Bakers Class I). […] Two weeks following the operation, patient developed bilateral Bakers Class III capsular contractures. […] Three months following the ACCOLATE® therapy, both breasts had achieved Bakers Class I status and at 8 months post-ACCOLATE® therapy, both breasts remained soft and at Bakers Class I level. […] Twenty days following the second operation, patient noted an increasing firmness of both breasts and breast massage and vitamin E therapy was continued. However, four months following the second operation, patient developed a severe capsular contracture in the left breast (Bakers Class IV). The right breast, however, remained soft (Bakers Class I). Patient was placed on ACCOLATE® at 20 mg twice daily. […] person was diagnosed with infiltrating ductal carcinoma in the left breast in June of 2000. Patient underwent a modified radical mastectomy with immediate reconstruction with placement of a tissue expander. […] Postoperatively, patient received chemotherapy (ADRIAMYCIN®, Cyclophosphamide, TAXOL®) and was placed on a study protocol for HERCEPTIN®. In February of 2001, patient underwent exchange of the tissue expander for a […] textured saline implant which was placed submuscularly. Six weeks following the implant placement, patient received local radiation therapy to the left breast of which they received a total of 5000 rads. Immediately following the radiation therapy, patient noted redness and blistering of the skin surrounding the left breast. Three weeks post-radiation therapy, patient noted hardening of the left breast mound, which quickly progressed to a Bakers Class IV capsular contracture by the fifth week following radiation therapy. […] Patient was then placed on ACCOLATE® therapy at 20 mg twice a day. […] Additionally, patient noted a significant improvement in the mastectomy scar which had been extremely hard and firm prior to the ACCOLATE® therapy. […] person underwent augmentation mammoplasty in 1986. 250 cc silicon implants were placed on each side above the muscle. Postoperatively the subject had no complications. The breasts remained soft for 5 years. In 1991, subject noted increasing firmness in both breasts. Subject received no treatment at that time. 17 years after surgery, subject was presented for possible surgical intervention. Upon examination, subject was noted to have Bakers Class IV capsular contractures bilaterally and was placed on Zafirlukast (Accolate®) 20 mg two times daily. […] Three months post Zafirlukast (Accolate®) therapy, subject went progressed a Bakers Class IV to a Bakers Class III on the right and a Bakers Class II on the left.

[1] = 20 mg twice daily accepted dosage, adults and children ages 12 and up; cited from earlier work
mastectomy scar = assay: Effect on mastectomy scar in a patient (case report); type: in vivo, human; conditions: Example IV patient, scar extremely hard and firm before therapy; 20 mg twice a day
Description: Person was diagnosed with infiltrating ductal carcinoma in the left breast in June of 2000. Patient underwent a modified radical mastectomy with immediate reconstruction with placement of a tissue expander. […] Postoperatively, patient received chemotherapy (ADRIAMYCIN®, Cyclophosphamide, TAXOL®) and was placed on a study protocol for HERCEPTIN®. In February of 2001, patient underwent exchange of the tissue expander for a […] textured saline implant which was placed submuscularly. Six weeks following the implant placement, patient received local radiation therapy to the left breast of which they received a total of 5000 rads. Immediately following the radiation therapy, patient noted redness and blistering of the skin surrounding the left breast. Three weeks post-radiation therapy, patient noted hardening of the left breast mound, which quickly progressed to a Bakers Class IV capsular contracture by the fifth week following radiation therapy. […] Patient was then placed on ACCOLATE® therapy at 20 mg twice a day. […] Additionally, patient noted a significant improvement in the mastectomy scar which had been extremely hard and firm prior to the ACCOLATE® therapy.

[2] = Example IV patient, 20 mg twice a day, after one month

Compound: vitamin E
- Relief of capsular contracture (capsular contracture; Example IV patient, Bakers Class IV, given with breast massage, before ACCOLATE therapy): without relief

Compound: COc1cc(C(=O)NS(=O)(=O)c2ccccc2C)ccc1Cc1cn(C)c2ccc(NC(=O)OC3CCCC3)cc12 [ACCOLATE®]
- Reported side effect: headaches [1]: 12.9%
- Reported side effect: nausea [1]: 3.1%
- Softness of breast implant (capsular contracture; Example IV patient, post-radiation Bakers Class IV before therapy, 20 mg twice a day, two weeks): noticeable softening
- Bakers Class of capsular contracture, left breast implant (capsular contracture; [2]): approaching a Bakers Class I softness
- Pain and distortion (capsular contracture; [2]): completely gone
- Softness of both breasts (capsular contracture; Example V patient, bilateral Bakers Class IV before therapy, 20 mg two times daily, 3 weeks): some improvement
- Mastectomy scar appearance and hardness (mastectomy scar): both softer and less noticeable
